Measured values published in US20100029654A1, “CARDIOVASCULAR COMPOSITIONS AND USE OF THE SAME FOR THE TREATMENT OF ALZHEIMER'S DISEASE” (MOUNT SINAI SCHOOL OF MEDICINE, priority 2006, published 2010).
Counter-ions that a name gives are not always drawn. Like-named read-outs stand apart in the source and are kept apart here.

Columns and labels:
[1] = test system: primary cortico-hippocampal neuron cultures; test: MTT in primary screening
[2] = test system: primary cortico-hippocampal neuron cultures; test: lactate dehydrogenase (LDH) activity assay in parallel neuron cultures
Description: For in vitro treatments drugs available from “The Spectrum Collection” in stocks of 10 mM in DMSO were applied directly to cultures to the desired concentrations (final 1% DMSO); control primary neuron cultures from Tg2576 embryos were treated with vehicle resulting in a final 1% DMSO.
Cell viability was assessed using a commercial available LDH assay kit according to the manufacture's instruction (Promega).

[3] = test system: Aβ1-40; test: Aβ1-40 content in conditioned medium of primary cortico-hippocampal neuron cultures from Tg2576 mice (ELISA; primary and secondary dose-response screening); type: cell-based, mouse; details: for activity at 100 µM: Mus musculus, Neuron, 24 h, read-out: Ab1-40 (% of ctl); for activity at 100 µM / Ab1-40 (% of ctl): drug 100 μM; for reduced Aβ1-40: <85% of ctl
Description: (§1) Potential Aβ-lowering activity was assessed for 150 commercially available cardiovascular drugs using primary cortico-hippocampal neuron cultures derived from embryonic Tg2576 (El 6). […] All cardiovascular reagents were obtained from MicroSource Discovery Systems Inc (Gaylordsville, Conn.). […] Individual cardiovascular agents were applied directly to the culture medium (final 1% DMSO in the culture media). In control studies, parallel Tg2576 primary neuron cultures were treated with vehicle (1% DMSO) alone. The influence of drug treatments in Aβ content in the conditioned medium in treated cultures was assessed by assessing steady state levels of Aβ1-40 and Aβ1-42 in the culture media 24 hours after treatment.
(§2) Embryonic brain tissue was mechanically triturated and centrifuged. Neurons were seeded onto poly-D-lysine-coated 96-well plates at 1.0×10^5 cells per well and cultured in the serum-free chemically-defined medium Neurobasal, supplemented with 2% B27, 0.5 mM L-glutamine and 1% penicillin-streptomycin (Gibco-BRL).
(§3) For primary screening, cultured neurons were treated with 100 μM of drug in duplicates for 16 hours; all drugs were obtained in stock from MicroSource Discovery Systems Inc (Gaylordsville, Conn.). Conditioned medium was collected for Aβ detection using commercially available ELISA kits (BioSource). […] Primary neurons prepared in 96-well plates were treated with 0.1 μM, 1 μM, 10 μM, 50 μM, and 100 μM of each drug in duplicate for ˜16 hours and conditioned medium was collected for Aβ detection.

[4] = test system: Aβ1-42; test: Aβ1-42 content in conditioned medium of primary cortico-hippocampal neuron cultures from Tg2576 mice (ELISA; primary and secondary dose-response screening); type: cell-based, mouse; details: for activity at 100 µM: Mus musculus, Neuron, 24 h, read-out: Ab1-42 (% of ctl); for activity at 100 µM / Ab1-42 (% of ctl): drug 100 μM; for reducing Aβ1-42: <85% of ctl
Description: as §1, §2, §3

[5] = Primary Screening, table sorted by Aβ1-40
[6] = primary screening, table sorted by Aβ1-42
[7] = primary screening, Tg2576 neuron cultures, table sorted by Aβ1-42

Row | SMILES | MTT (% of ctl) [1, 5] | MTT (% of ctl) [1, 6] | LDH (% of ctl) [2, 5] | LDH (% of ctl) [2, 6] | activity at 100 µM [3, 5] | activity at 100 µM [3, 7] | activity at 100 µM [4, 5] | activity at 100 µM [4, 7] | reducing Aβ1-42 ([4]; primary screening) | Ab1-40 (% of ctl) [3, 5] | reduced Aβ1-40 ([3]; primary screening) | Ab1-40 (% of ctl) [3, 7] | Ab1-42 (% of ctl) [4, 5] | Ab1-42 (% of ctl) [4, 7]
1 | CC(C)(C)NCC(O)COc1cccc2c1CC(O)C(O)C2 (stereo not drawn) [Nadolol] | 102.8 % of ctl | 102.8 % of ctl | 106.5 % of ctl | 106.5 % of ctl | 94.2% | 94.2% | 113% | 113% | – | – | – | – | – | –
2 | Cc1ccccc1N1C(=O)c2cc(S(N)(=O)=O)c(Cl)cc2NC1C (stereo not drawn) [Metolazone] | 69.7 % of ctl | 69.7 % of ctl | 103.7 % of ctl | 103.7 % of ctl | 104% | 104% | 98% | 98% | – | – | – | – | – | –
3 | CC(=O)Nc1ccc(OCC(O)CNC(C)C)cc1 (stereo not drawn) [Practolol] | 101.3 % of ctl | 101.3 % of ctl | 108.9 % of ctl | 108.9 % of ctl | 99.7% | 99.7% | 99.9% | 99.9% | – | – | – | – | – | –
4 | NS(=O)(=O)c1cc2c(cc1Cl)NC(C(Cl)Cl)NS2(=O)=O (stereo not drawn) [Trichlormethiazide] | 105.5 % of ctl | 105.5 % of ctl | 102.6 % of ctl | 102.6 % of ctl | 89.3% | 89.3% | 84.5% | 84.5% | useful in reducing Aβ1-42 | – | – | – | – | –
5 | NC(N)=NC(=O)c1nc(Cl)c(N2CCCCCC2)nc1N [N,N-Hexamethyleneamiloride] | 96.1 % of ctl | 96.1 % of ctl | 117.3 % of ctl | 117.3 % of ctl | – | – | – | – | useful in reducing Aβ1-42 | 15.4 % of ctl | reduced Aβ1-40 | 15.4 % of ctl | 26.2 % of ctl | 26.2 % of ctl
6 | CC1=NS(=O)(=O)c2cc(Cl)ccc2N1 [Diazoxide] | 97.8 % of ctl | 97.8 % of ctl | 112.0 % of ctl | 112.0 % of ctl | 114% | 114% | 98.9% | 98.9% | – | – | – | – | – | –
7 | CNC1(C)C2CCC(C2)C1(C)C (stereo not drawn) [Mecamylamine Hydrochloride] | 114.9 % of ctl | 114.9 % of ctl | 97.0 % of ctl | 97.0 % of ctl | 124% | 124% | 130% | 130% | – | – | – | – | – | –
8 | C[N+]1(CCCCC[N+]2(C)CCCC2)CCCC1 [Pentolinium Tartrate] | 103.8 % of ctl | 103.8 % of ctl | 118.0 % of ctl | 118.0 % of ctl | 121% | 121% | 134% | 134% | – | – | – | – | – | –
9 | COc1ccc2cc1Oc1ccc(cc1)C[C@H]1c3cc(c(OC)cc3CCN1C)Oc1c(OC)c(OC)cc3c1[C@H](C2)N(C)CC3 [Tetrandrine] | 112.5 % of ctl | 112.5 % of ctl | 117.6 % of ctl | 117.6 % of ctl | 4.5% | 4.5% | 25.2% | 25.2% | – | – | – | – | – | –
10 | CC(C)NCC(O)c1ccc2ccccc2c1 (stereo not drawn) [Pronetalol Hydrochloride] | 88.8 % of ctl | 88.8 % of ctl | 108.9 % of ctl | 108.9 % of ctl | 88% | 88% | 94.6% | 94.6% | – | – | – | – | – | –
11 | Cc1cccc(Nc2ccncc2S(=O)(=O)NC(=O)NC(C)C)c1 [Torsemide] | 99.2 % of ctl | 99.2 % of ctl | 107.5 % of ctl | 107.5 % of ctl | 107% | 107% | 104% | 104% | – | – | – | – | – | –
12 | C[C@]12CCC(=O)C=C1C=C[C@@H]1[C@@H]2CC[C@@]2(C)[C@H]1CC[C@@]2(O)CCC(=O)O [Canrenoic Acid, Potassium Salt] | 102.1 % of ctl | 102.1 % of ctl | 106.9 % of ctl | 106.9 % of ctl | 101% | 101% | 106% | 106% | – | – | – | – | – | –
13 | CCCNCC(O)COc1ccccc1C(=O)CCc1ccccc1 (stereo not drawn) [Propafenone Hydrochloride] | 95.2 % of ctl | 95.2 % of ctl | 113.7 % of ctl | 113.7 % of ctl | 36.3% | 36.3% | 56.4% | 56.4% | useful in reducing Aβ1-42 | – | reduced Aβ1-40 | – | – | –
14 | CCOC(=O)C1=C(COCCN)NC(C)=C(C(=O)OC)C1c1ccccc1Cl (stereo not drawn) [Amlodipine Besylate] | 13.3 % of ctl | 13.3 % of ctl | 1188.9 % of ctl | 1188.9 % of ctl | 4.9% | 4.9% | 10.2% | 10.2% | useful in reducing Aβ1-42 | – | reduced Aβ1-40 | – | – | –
15 | COc1cc([S+](C)[O-])ccc1-c1nc2ncccc2[nH]1 (stereo not drawn) [Sulmazole] | 115.0 % of ctl | 115.0 % of ctl | 111.1 % of ctl | 111.1 % of ctl | 116% | 116% | 93.2% | 93.2% | – | – | – | – | – | –
16 | CC(C)NCC(O)COc1ccc(CC(N)=O)cc1 (stereo not drawn) [Atenolol] | 97.3 % of ctl | 97.3 % of ctl | 136.8 % of ctl | 136.8 % of ctl | 90.4% | 90.4% | 94.5% | 94.5% | – | – | – | – | – | –
17 | O=[N+]([O-])O[C@H]1CO[C@H]2[C@@H]1OC[C@H]2O[N+](=O)[O-] [Isosorbide Dinitrate] | 100.8 % of ctl | 100.8 % of ctl | 124.6 % of ctl | 124.6 % of ctl | – | – | – | – | useful in reducing Aβ1-42 | – | reduced Aβ1-40 | – | – | –
18 | CC1Cc2ccccc2N1NC(=O)c1ccc(Cl)c(S(N)(=O)=O)c1 (stereo not drawn) [Indapamide] | 104.2 % of ctl | 104.2 % of ctl | 85.3 % of ctl | 85.3 % of ctl | 107% | 107% | 91.3% | 91.3% | – | – | – | – | – | –
19 | COc1cc2ccc(=O)oc2cc1O [Scopoletin] | 99.7 % of ctl | 99.7 % of ctl | 106.2 % of ctl | 106.2 % of ctl | 71.9% | 71.9% | 109% | 109% | – | – | reduced Aβ1-40 | – | – | –
20 | O=C1c2ccccc2C(=O)C1c1ccccc1 [Phenindione] | 108.8 % of ctl | 108.8 % of ctl | 107.9 % of ctl | 107.9 % of ctl | 104% | 104% | 105% | 105% | – | – | – | – | – | –
21 | CCCC(=O)Nc1ccc(OCC(O)CNC(C)C)c(C(C)=O)c1 (stereo not drawn) [Acebutolol Hydrochloride] | 99.4 % of ctl | 99.4 % of ctl | 107.6 % of ctl | 107.6 % of ctl | 134% | 134% | 165% | 165% | – | – | – | – | – | –
